For experiment [1], the system named is spontaneous hypertensive rats (SHR). As to the kind of experiment: Antihypertensive effect in spontaneous hypertensive rats (SHR). It counts as in vivo. The following applies: 5 mg/kg ip, max change within one hour; for change in vivo at 5 mg/kg: Rattus norvegicus, ip, 1 h.
Experiment [2] deals with methylphenidate induced stereotypies. As to the kind of experiment: Methylphenidate Antagonism. It counts as in vivo, mice. The conditions noted are these: Mus musculus, ip, read-out: MePh antg. ED50, i.p., mice, 2 hours before methylphenidate 60 mg/kg s.c. As for the experimental part: The experiments were made as described by Pedersen and Christensen (1972) Acta Pharmacol. et Toxicol. 31, 488-496.--Briefly, test compounds or saline were injected i.p. 2 hours before methylphenidate, 60 mg/kg s.c. 3 pairs of mice were used for each dose level. After methylphenidate injection the mice were placed in observation cages for one hour. The cages were placed on corrugated paper, the corrugation facing upwards.

For experiment [3], the system named is phenylephrine pressor responses. Put plainly: Antagonism to phenylephrine pressor responses in pithed rats. Type of experiment: in vivo. The following applies: for change in vivo at […]: Rattus norvegicus, iv, read-out: Effects on pressor response of Phenylephrine, % eff. of […], pithed rats, […], jugular vein, read-out: Effects on pressor response of Phenylephrine, % eff. of 0.31 mg/kg.

The subject of a further experiment is 5-HT pressor responses. As to the kind of experiment: Antagonism to 5-HT pressor responses in pithed rats. Type of experiment: in vivo. The following applies: pithed rats, 0.02 mg/kg, jugular vein; for change in vivo at 0.02 mg/kg: Rattus norvegicus, iv, read-out: Effects on pressor response of 5-HT, % eff. of 0.02 mg/kg.
For experiment [4], the system named is Quipazine-induced head shakes. As to the kind of experiment: Quipazine-induced head shakes. Type of experiment: in vivo. The conditions noted are these: Rattus norvegicus, sc, rats, 2 hours before quipazine 5 mg/kg s.c.; read-out: Quipazine antg. (Q) ED50. On the procedure: The rats were pretreated subcutaneously with test compound or saline 2 hours before injection of quipazine (5 mg/kg s.c.). The rats were then placed individually in perspex observation cages (12×25 cm), and in standard experiments the number of head shakes (involving the head and sometimes part of the body) were counted for 10 min., 30-40 min. after quipazine, where the effect was maximal. The number of head shakes in each dose group were expressed in percent of those induced in the control group, and ED50 values were calculated by log-probit analysis of results from at least 3 doses.
Each group consisted of 4-12 rats.

The mark [5] stands for this setting: diastolic pressure (DAP), read-out: Antihypertensive eff. SHR, max eff. in % of 5 mg/kg ip, DAP.
[6] abbreviates: systolic pressure (SAP), read-out: Antihypertensive eff. SHR, max eff. in % of 5 mg/kg ip, SAP.

Where two headings read alike, the source gives them in different places. A value given as a limit tells only on which side of the number the result lay.

Regarding `O=C1OCCN1CCN1CCN([C@@H]2C[C@@H](c3ccc(F)cc3)c3ccc(Cl)cc32)CC1` (relative stereo) [compound 22], the change in vivo at 5 mg/kg in experiment [1] (setting [5]) is -21%; in experiment [1] (setting [6]), -17%. The values for the ED50 in experiment [2] and in experiment [4] were 2.8 µmol/kg and 0.12 µmol/kg, respectively. In addition, the change in vivo at […] in experiment [3] was -5%. In addition, in the experiment on 5-HT pressor responses, the change in vivo at 0.02 mg/kg was -77%.
On to `O=C1NCCN1CCN1CCN([C@@H]2C[C@@H](c3ccc(F)cc3)c3ccc(Cl)cc32)CC1` (single isomer, unassigned) [+20, Trans-1-[3-(4-fluorophenyl)-6-chloroindan-1-yl]-4-[2-(2-imidazolidinon-1-yl)ethyl]piperazine, L(+)tartrate], for which, in experiment [1] (diastolic pressure (DAP)), the “Antihypertensive eff. SHR, max eff. in % of 5 mg/kg ip, DAP” value was -45%. Moreover, in experiment [1] (systolic pressure (SAP)), the “Antihypertensive eff. SHR, max eff. in % of 5 mg/kg ip, SAP” value is on record as -29%. Moreover, the ED50 in experiment [2] worked out at 49 µmol/kg; in experiment [4], 0.028 µmol/kg. Besides, the “Effects on pressor response of Phenylephrine, % eff. of […]” value in experiment [3] (pithed rats, […], jugular vein) was -34%. For the same molecule, the “Effects on pressor response of 5-HT, % eff. of 0.02 mg/kg” value in the experiment on 5-HT pressor responses was -92%.
As for `Fc1ccc([C@@H]2C[C@@H](N3CCN(CCN4CCCC4=S)CC3)c3cc(Cl)ccc32)cc1` (relative stereo) [compound 29, (±)Trans-1-[3-(4-fluorophenyl)-6-chlorindan-1-yl]-4-[2-(2-pyrrolidinthion-1-yl)ethyl]piperazine], the change in vivo at 5 mg/kg is -4% in experiment [1] (setting [5]) and -5% in experiment [1] (setting [6]). The change in vivo at […] in experiment [3] was found to be 8%. The change in vivo at 0.02 mg/kg with 5-HT pressor responses was -88%. Besides, the ED50 in experiment [4] was less than 0.17 µmol/kg.
For `Fc1ccc([C@@H]2C[C@@H](N3CCN(CCN4CCNC4=S)CC3)c3cc(Cl)ccc32)cc1` (relative stereo) [compound 28], the change in vivo at 5 mg/kg in experiment [1] (setting [5]) is -10%; in experiment [1] (setting [6]), -6%. In addition, the ED50 was found to be 4.5 µmol/kg in experiment [2] and 0.017 µmol/kg in experiment [4]. Moreover, in experiment [3], the change in vivo at […] was -22%. Besides, the change in vivo at 0.02 mg/kg with 5-HT pressor responses is -93%.
As for `O=C1CCCN1CCN1CCN([C@@H]2C[C@@H](c3ccc(F)cc3)c3ccc(Cl)cc32)CC1` (relative stereo) [compound 21], the change in vivo at 5 mg/kg was -14% in experiment [1] (setting [5]) and -11% in experiment [1] (setting [6]). The ED50 in experiment [2] worked out at 11 µmol/kg; in experiment [4], 0.079 µmol/kg. The change in vivo at […] in experiment [3] came to 3%. Also, in the experiment on 5-HT pressor responses, the change in vivo at 0.02 mg/kg is -83%.
